Assay results published in patent US9724351B2, “Compounds for the treatment of paramoxyvirus viral infections” (priority 2012, dated 2017).

Key:
[1] = Cytotoxicity Determination; type: cell-based; settings: human, HEp-2 cells, without addition of virus, CCK-8 readout, bins (Table 4: greater than 100 μM; Table 5: equal to or less than 100 μM and greater than 10 μM), read-out: 50% cytotoxicity concentration (CC50)
Outline: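 Uninfected cells were exposed to compounds in duplicate over a 7-point ½ dilution series starting at 100 μM final, for 5 days at 37 °C, 5% CO2. CCK-8 was then added for 3-4 h, and CC50 was calculated from optical density.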

[2] = tested on: Respiratory Syncytial Virus (RSV) long strain (ATCC#VR-26); assay: RSV Antiviral Assay (CPE reduction assay); type: cell-based; settings: human respiratory syncytial virus, 120 h; HEp-2 cells infected with RSV long strain, 5 days, CCK-8 readout; bins (Table 2: less than 1 μM; Table 3: equal to or higher than 1 μM and less than 50 μM); read-out: 50% effective concentration (EC50)
Outline: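 HEp-2 cells infected with 100 TCID50 RSV long strain per well, compounds from 100 μM or 1 μM in 9-point ⅓ dilutions, duplicates, 1% DMSO. After 5 days at 37 °C, viable cells measured by CCK-8 (A450, 630 nm background); EC50 by regression on mean O.D.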

Row | SMILES | CC50 at 5 days [1] [µM] | EC50 [2] [µM]
1 | CCCC/C(=N\NC(=O)CNC(=O)c1ccc(OCC)c(OC)c1)c1csc2c(F)cccc12 [Compound 462A] | > 100 | < 1
2 | CCCC/C(=N/NC(=O)CNC(=O)c1ccc(OCC)c(OC)c1)c1csc2c(F)cccc12 [Compound 462B] | 10 to 100 | < 1
3 | CCOc1ccc(C(=O)NCC(=O)N/N=C(\CCOC)c2csc3c(F)cccc23)cc1OC [Compound 463A] | > 100 | < 1
4 | CCOc1ccc(C(=O)NCC(=O)N/N=C(/CCOC)c2csc3c(F)cccc23)cc1OC [Compound 463B] | > 100 | < 1
5 | CCOc1ccc(C(=O)NCC(=O)N/N=C2\CN(CC)Cc3sc4c(F)cccc4c32)cc1OC [Compound 464] | > 100 | < 1
6 | CCOc1ccc(C(=O)NCC(=O)N/N=C(\C)c2csc3cnccc23)cc1OC [Compound 466] | > 100 | 1 to 50
7 | C/C(=N\NC(=O)CNC(=O)c1ccc(N2CCCCC2)cc1)c1csc2ccccc12 [Compound 467] | > 100 | 1 to 50
8 | C/C(=N\NC(=O)CNC(=O)c1ccc(N2CCCC2)cc1)c1csc2ccccc12 [Compound 468] | > 100 | 1 to 50
9 | CCN(CC)c1ccc(C(=O)NCC(=O)N/N=C(\C)c2csc3ccccc23)cc1 [Compound 469] | 10 to 100 | 1 to 50
10 | C/C(=N\NC(=O)CNC(=O)c1ccc2c(c1)OCCN2C)c1csc2ccccc12 [Compound 470] | > 100 | 1 to 50
11 | C/C(=N\NC(=O)CNC(=O)c1ccc2c(c1)OCCO2)c1csc2ccccc12 [Compound 471] | > 100 | 1 to 50
12 | C/C(=N\NC(=O)CNC(=O)c1ccc2c(c1)OC(F)(F)O2)c1csc2ccccc12 [Compound 474] | 10 to 100 | 1 to 50
13 | COc1cc(C(=O)NCC(=O)N/N=C(\C)c2csc3ccccc23)ccc1OC(C)C [Compound 475] | > 100 | < 1
14 | CCCC/C(=N\NC(=O)CNC(=O)c1ccc(OC(C)C)c(OC)c1)c1csc2ccccc12 [Compound 476] | > 100 | < 1
15 | COc1cc(C(=O)NCC(=O)N/N=C(\C)c2csc3ccccc23)ccc1O [Compound 478] | 10 to 100 | 1 to 50
16 | COc1cc(Br)c(C(=O)NCC(=O)N/N=C(\C)c2csc3ccccc23)cc1OC [Compound 479] | 10 to 100 | 1 to 50
17 | COc1cc(OC)c(C(=O)NCC(=O)N/N=C(\C)c2csc3ccccc23)cc1OC [Compound 480] | > 100 | 1 to 50
18 | COc1ccc(C(=O)NCC(=O)N/N=C(\C)c2csc3ccccc23)c(OC)c1OC [Compound 481] | > 100 | 1 to 50
19 | COc1cc(Cl)c(C(=O)NCC(=O)N/N=C(\C)c2csc3ccccc23)cc1OC [Compound 482] | 10 to 100 | 1 to 50
20 | CCCCOc1ccc(C(=O)NCC(=O)N/N=C(\C)c2csc3ccccc23)cc1OC [Compound 483] | 10 to 100 | 1 to 50

Row | SMILES | CC50 at 5 days [1] [µM] | EC50 [2] [µM]
21 | COc1ccc(C(=O)NCC(=O)N/N=C/c2c(C)n(C)c3ccccc23)cc1OC [Compound 486] | 10 to 100 | 1 to 50
22 | CCCC/C(=N\NC(=O)CNC(=O)c1ccc(OCC)c(OC)c1)c1csc2ccccc12 [Compound 488] | > 100 | < 1
23 | COc1ccc(C(=O)NCC(=O)N/N=C(\CCCC(C)C)c2csc3ccccc23)cc1OC [Compound 489] | 10 to 100 | 1 to 50
24 | COc1ccc(C(=O)NCC(=O)N/N=C/c2csc3c(F)cccc23)cc1OC [Compound 490] | > 100 | < 1
25 | COc1ccc(C(=O)NCC(=O)N/N=C(\C)c2noc3ccccc23)cc1OC [Compound 491] | > 100 | 1 to 50
26 | COc1ccc(C(=O)NCC(=O)N/N=C(\CCO)c2csc3ccccc23)cc1OC [Compound 492] | > 100 | < 1
27 | COCC/C(=N\NC(=O)CNC(=O)c1ccc(OC)c(OC)c1)c1csc2ccccc12 [Compound 493] | > 100 | < 1
28 | COCC/C(=N/NC(=O)CNC(=O)c1ccc(OC)c(OC)c1)c1csc2ccccc12 [Compound 494] | > 100 | < 1
29 | COc1ccc(C(=O)NCC(=O)N/N=C(\CCc2ccccc2)c2csc3ccccc23)cc1OC [Compound 495] | 10 to 100 | 1 to 50
30 | COc1ccc(C(=O)NCC(=O)N/N=C/c2ccc3ccsc3c2)cc1OC [Compound 496] | 10 to 100 | 1 to 50
31 | COc1ccc(C(=O)NCC(=O)N/N=C(\C)c2csc3c(N)cccc23)cc1OC [Compound 497] | > 100 | 1 to 50
32 | CCOC(=O)c1c[nH]c2c(/C=N/NC(=O)CNC(=O)c3ccc(OC)c(OC)c3)csc2c1=O [Compound 498] | > 100 | 1 to 50
33 | CCN(CC)c1ccc(C(=O)NCC(=O)N/N=C(\C)c2csc3ccccc23)cc1OC [Compound 500] | > 100 | 1 to 50
34 | CCNc1ccc(C(=O)NCC(=O)N/N=C(\C)c2csc3ccccc23)cc1 [Compound 501] | 10 to 100 | 1 to 50
35 | CCOc1ccc(C(=O)NCC(=O)N/N=C(\C)c2csc3ccccc23)cc1OC [Compound 502] | > 100 | < 1
36 | CCN(CC)c1cccc(C(=O)NCC(=O)N/N=C(\C)c2csc3ccccc23)c1 [Compound 503] | > 100 | 1 to 50
37 | CCN(CC)c1cc(C(=O)NCC(=O)N/N=C(\C)c2csc3ccccc23)ccc1OC [Compound 504] | 10 to 100 | 1 to 50
38 | CCOc1ccc(C(=O)NCC(=O)N/N=C(\C)c2csc3ccccc23)cc1N(CC)CC [Compound 505] | 10 to 100 | 1 to 50
39 | CCNc1ccc(C(=O)NCC(=O)N/N=C(\C)c2csc3ccccc23)cc1OC [Compound 508] | > 100 | 1 to 50
40 | CCOc1cc(C(=O)NCC(=O)N/N=C(\C)c2csc3ccccc23)ccc1N(CC)CC [Compound 509] | 10 to 100 | 1 to 50

Row | SMILES | CC50 at 5 days [1] [µM] | EC50 [2] [µM]
41 | COc1cc(C(=O)NCC(=O)N/N=C(\C)c2csc3ccccc23)ccc1OCC1CC1 [Compound 510] | 10 to 100 | < 1
42 | CCN(CC)c1cc(C(=O)NCC(=O)N/N=C(\C)c2csc3ccccc23)cs1 [Compound 511] | 10 to 100 | 1 to 50
43 | CCN(C)c1ccc(C(=O)NCC(=O)N/N=C(\C)c2csc3ccccc23)cc1OC [Compound 512] | 10 to 100 | 1 to 50
44 | COCCOc1ccc(C(=O)NCC(=O)N/N=C(\CCOC)c2csc3c(F)cccc23)cc1OC [Compound 513] | > 100 | < 1
45 | COCC/C(=N\NC(=O)CNC(=O)c1ccc(OC2COC2)c(OC)c1)c1csc2c(F)cccc12 [Compound 514A] | > 100 | < 1
46 | COCC/C(=N/NC(=O)CNC(=O)c1ccc(OC2COC2)c(OC)c1)c1csc2c(F)cccc12 [Compound 514B] | > 100 | < 1
47 | COc1cc(C(=O)NCC(=O)N/N=C(\C)c2csc3ccccc23)ccc1OCCO [Compound 600] | > 100 | < 1
48 | CCCC/C(=N/NC(=O)CNC(=O)c1ccc(OCCO)c(OC)c1)c1csc2c(F)cccc12 [Compound 602] | > 100 | < 1
49 | COCC/C(=N\NC(=O)CNC(=O)c1ccc(OCCO)c(OC)c1)c1csc2c(F)cccc12 [Compound 603A] | > 100 | < 1
50 | COCC/C(=N/NC(=O)CNC(=O)c1ccc(OCCO)c(OC)c1)c1csc2c(F)cccc12 [Compound 603B] | > 100 | < 1
51 | COc1cc(C(=O)NCC(=O)N/N=C/c2csc3c(F)cccc23)ccc1OCCO [Compound 604] | > 100 | < 1
52 | COc1cc(C(=O)NCC(=O)N/N=C(\CC2CCCCC2)c2csc3c(F)cccc23)ccc1OCCO [Compound 605] | 10 to 100 | < 1
53 | COc1cc(C(=O)NCC(=O)N/N=C(/CC2CCCCC2)c2csc3c(F)cccc23)ccc1OCCO [Compound 606] | 10 to 100 | 1 to 50
54 | COc1cc(C(=O)NCC(=O)N(C)/N=C(\C)c2csc3c(F)cccc23)ccc1OCCO [Compound 651] | > 100 | < 1
55 | COc1ccc(C(=O)NCC(O)c2ccnc(-c3csc4c(F)cccc34)n2)cc1OC (stereo not drawn) [Compound 839, N-(2-(2-(7-fluorobenzo[b]thiophen-3-yl)pyrimidin-4-yl)-2-hydroxyethyl)-3,4-dimethoxy-benzamide] | > 100 | 1 to 50
56 | COc1ccc(C(=O)NCC(=O)c2ccnc(-c3csc4c(F)cccc34)n2)cc1OC [Compound 840] | > 100 | 1 to 50
57 | CCOc1ccc(C(=O)NCC(=O)Nc2nc3cc(Cl)ccc3n2CCOC)cc1OC [Compound 911] | 10 to 100 | 1 to 50
58 | COc1ccc(C(=O)NCC(=O)N2CCC(c3csc4c(F)cccc34)=N2)cc1OC [Compound 1100] | 10 to 100 | 1 to 50
59 | COc1cc(C(=O)NCC(=O)N2CCCC(c3csc4c(F)cccc34)=N2)ccc1OCCO [Compound 1101] | > 100 | < 1
60 | COc1ccc(C(=O)NCC(=O)c2cc(C(C)C)cc(-c3csc4c(F)cccc34)n2)cc1OC [Compound 1200] | > 100 | < 1
